Test results published in US9586951B2 (FUJIFILM Corporation, priority 2013, dated 2017).
Where a name gives a salt, the structure may show the parent alone.

Target: T1, ATM (Homo sapiens, UniProt Q13315)
T1 construct: detecting phosphorylation of Chk2 in a human non-small cell lung cancer cell line NCI-H460 (ATCC company); host or cells: NCI-H460 human non-small cell lung cancer cells
Experiment: ATM inhibition test (phosphorylation of Chk2 generated by ionizing radiation, AlphaScreen SureFire)
Assay type: cell-based
Settings: ATM inhibitory activity, phosphorylated Chk2 in NCI-H460 cells, ionizing radiation 8Gy, 1 hour after test compound treatment
Outline: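 Phosphorylated Chk2 read by AlphaScreen SureFire in human non-small cell lung cancer NCI-H460 cells, 1 hour after 8Gy ionizing radiation at 37° C. Compound added 1 hour before irradiation. Percent inhibition normalised between irradiated and non-irradiated drug-untreated signals.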

T1 sequence (Q13315 whole entry): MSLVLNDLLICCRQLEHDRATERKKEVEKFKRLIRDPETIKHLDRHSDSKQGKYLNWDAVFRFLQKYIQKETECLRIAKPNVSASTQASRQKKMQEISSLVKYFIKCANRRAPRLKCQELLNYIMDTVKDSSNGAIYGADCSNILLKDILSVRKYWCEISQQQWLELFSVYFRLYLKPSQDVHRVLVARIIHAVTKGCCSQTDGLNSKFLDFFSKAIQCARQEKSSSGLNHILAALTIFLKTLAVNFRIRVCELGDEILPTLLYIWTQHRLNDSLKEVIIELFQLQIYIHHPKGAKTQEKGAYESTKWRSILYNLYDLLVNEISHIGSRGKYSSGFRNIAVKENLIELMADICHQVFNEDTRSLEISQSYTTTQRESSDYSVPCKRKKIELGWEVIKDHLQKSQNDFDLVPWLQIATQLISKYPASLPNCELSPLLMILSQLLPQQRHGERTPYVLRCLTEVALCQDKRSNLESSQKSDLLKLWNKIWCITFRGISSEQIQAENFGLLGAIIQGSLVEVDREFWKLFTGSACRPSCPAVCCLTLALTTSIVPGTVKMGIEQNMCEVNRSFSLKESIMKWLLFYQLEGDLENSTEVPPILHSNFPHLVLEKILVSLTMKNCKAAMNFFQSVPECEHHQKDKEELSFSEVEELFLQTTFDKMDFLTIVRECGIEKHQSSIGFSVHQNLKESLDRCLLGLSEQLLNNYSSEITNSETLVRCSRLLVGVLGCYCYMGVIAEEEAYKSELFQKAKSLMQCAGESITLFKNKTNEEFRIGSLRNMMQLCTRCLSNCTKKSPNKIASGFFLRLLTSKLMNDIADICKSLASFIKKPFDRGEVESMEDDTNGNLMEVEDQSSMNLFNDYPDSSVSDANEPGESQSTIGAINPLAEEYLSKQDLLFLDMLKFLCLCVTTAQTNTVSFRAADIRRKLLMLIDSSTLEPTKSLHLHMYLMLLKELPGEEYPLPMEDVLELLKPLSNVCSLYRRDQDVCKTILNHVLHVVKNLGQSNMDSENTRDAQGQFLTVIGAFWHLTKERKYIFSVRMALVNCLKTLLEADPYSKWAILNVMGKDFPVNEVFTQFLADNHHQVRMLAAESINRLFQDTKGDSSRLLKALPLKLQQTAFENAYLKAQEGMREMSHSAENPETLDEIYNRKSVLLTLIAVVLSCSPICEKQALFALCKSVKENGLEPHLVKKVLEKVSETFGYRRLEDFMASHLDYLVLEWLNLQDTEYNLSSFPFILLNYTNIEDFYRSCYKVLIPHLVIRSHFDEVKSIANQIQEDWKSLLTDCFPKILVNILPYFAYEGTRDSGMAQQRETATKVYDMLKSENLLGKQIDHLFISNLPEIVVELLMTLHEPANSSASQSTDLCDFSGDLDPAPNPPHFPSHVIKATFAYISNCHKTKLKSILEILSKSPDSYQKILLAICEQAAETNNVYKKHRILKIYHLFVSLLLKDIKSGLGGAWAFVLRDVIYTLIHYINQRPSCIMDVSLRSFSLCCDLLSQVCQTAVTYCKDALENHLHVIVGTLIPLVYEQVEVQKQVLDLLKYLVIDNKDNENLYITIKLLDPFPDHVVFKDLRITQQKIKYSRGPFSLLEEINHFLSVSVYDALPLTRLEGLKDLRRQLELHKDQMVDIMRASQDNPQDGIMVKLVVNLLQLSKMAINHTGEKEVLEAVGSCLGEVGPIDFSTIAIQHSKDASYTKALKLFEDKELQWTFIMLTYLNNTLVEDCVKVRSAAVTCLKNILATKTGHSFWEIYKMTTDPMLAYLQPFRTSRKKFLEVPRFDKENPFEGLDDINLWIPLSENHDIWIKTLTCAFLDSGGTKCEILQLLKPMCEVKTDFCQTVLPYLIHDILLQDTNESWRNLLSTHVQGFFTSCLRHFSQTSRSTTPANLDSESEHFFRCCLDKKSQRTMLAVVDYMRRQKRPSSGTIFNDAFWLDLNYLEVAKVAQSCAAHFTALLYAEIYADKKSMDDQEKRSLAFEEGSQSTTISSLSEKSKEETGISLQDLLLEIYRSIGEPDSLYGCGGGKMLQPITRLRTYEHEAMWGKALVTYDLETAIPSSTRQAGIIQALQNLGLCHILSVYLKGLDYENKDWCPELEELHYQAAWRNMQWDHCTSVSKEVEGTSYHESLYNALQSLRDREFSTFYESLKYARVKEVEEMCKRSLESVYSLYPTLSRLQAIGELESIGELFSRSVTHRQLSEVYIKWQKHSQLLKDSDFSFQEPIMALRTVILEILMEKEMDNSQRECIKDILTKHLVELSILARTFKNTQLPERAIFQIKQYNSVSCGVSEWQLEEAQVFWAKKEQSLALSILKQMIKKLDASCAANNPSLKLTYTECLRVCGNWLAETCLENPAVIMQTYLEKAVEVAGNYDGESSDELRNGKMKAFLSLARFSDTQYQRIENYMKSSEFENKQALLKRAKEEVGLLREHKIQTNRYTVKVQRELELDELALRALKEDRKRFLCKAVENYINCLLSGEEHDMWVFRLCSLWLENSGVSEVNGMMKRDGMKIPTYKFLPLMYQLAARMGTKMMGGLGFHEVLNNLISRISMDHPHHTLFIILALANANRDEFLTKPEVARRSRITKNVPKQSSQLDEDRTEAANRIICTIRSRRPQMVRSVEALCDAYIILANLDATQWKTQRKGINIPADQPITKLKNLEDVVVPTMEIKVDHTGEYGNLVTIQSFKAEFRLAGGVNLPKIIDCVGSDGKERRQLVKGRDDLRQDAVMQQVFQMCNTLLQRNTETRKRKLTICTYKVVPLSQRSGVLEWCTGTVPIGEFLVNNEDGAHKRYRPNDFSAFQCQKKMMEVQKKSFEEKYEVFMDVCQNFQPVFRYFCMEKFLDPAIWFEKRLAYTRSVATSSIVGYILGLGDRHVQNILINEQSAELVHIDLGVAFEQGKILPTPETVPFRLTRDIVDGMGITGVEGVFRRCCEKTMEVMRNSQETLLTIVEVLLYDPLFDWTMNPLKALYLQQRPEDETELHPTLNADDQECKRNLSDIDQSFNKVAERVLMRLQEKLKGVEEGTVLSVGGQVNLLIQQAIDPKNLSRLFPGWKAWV

Compound | IC50 [nM]
O=c1cc(N2CCOCC2)cc(-c2cccc3c2Sc2ccc(N4CC4CN4CCOCC4)cc2S3)[nH]1 (stereo not drawn) [Example 1-38, 4-morpholino-6-(7-(2-(morpholinomethyl)aziridin-1-yl)thianthren-1-yl)pyridin-2(1H)-one] | 100 to 500

Same assay, conditions: phosphorylated Chk2 in NCI-H460 cells, ionizing radiation 8Gy, 1 hour after test compound treatment; read-out: ATM inhibitory activity

Compound | IC50 [nM]
Nc1ccc(CCN2CCC(Nc3ccc4c(c3)Cc3cccc(-c5cc(N6CCOCC6)cc(=O)[nH]5)c3O4)CC2)cc1 [Example 2-31, hydrochloride of 6-(7-((1-(4-aminophenethyl)piperidin-4-yl)amino)-9H-xanthen-4-yl)-4-morpholinopyridin-2(1H)-one] | 100 to 500
COc1cccc(CNc2ccc3c(c2)Cc2ccnc(-c4cc(N5CCOCC5)cc(=O)[nH]4)c2O3)n1 [Example 2-42-7, 6-(7-(((6-Methoxypyridin-2-yl)methyl)amino)-5H-chromeno[2,3-c]pyridin-1-yl)-4-morpholinopyridin-2(1H)-one] | 500 to 2000
CC(Nc1ccc2c(c1)Cc1cccc(-c3cc(N4CCOCC4)cc(=O)[nH]3)c1O2)c1ccnc(C#N)n1 (stereo not drawn) [Example 2-14-58, 4-(1-((5-(4-Morpholino-6-oxo-1,6-dihydropyridin-2-yl)-9H-xanthen-2-yl)amino)ethyl)pyrimidine-2-carbonitrile] | 100 to 500
O=c1cc(N2CCOCC2)cc(-c2cccc3c2Oc2ccc(NC4CCCN(CCc5ccccc5)CC4)cc2S3)[nH]1 (stereo not drawn) [Example 4-6-2, 4-Morpholino-6-(8-((1-phenethylazepan-4-yl)amino)phenoxathiin-4-yl)pyridin-2(1H)-one] | 100 to 500
N#CCC(CN1CCOCC1)Nc1ccc2c(c1)Sc1cccc(-c3cc(N4CCOCC4)cc(=O)[nH]3)c1S2 (stereo not drawn) [Example 9-2, 4-Morpholino-3-((6-(4-morpholino-6-oxo-1,6-dihydropyridin-2-yl)thianthren-2-yl)amino)butanenitrile] | 100 to 500
O=c1cc(N2CCOCC2)cc(-c2cccc3c2Sc2ccc(NCc4cccnc4)cc2C3)[nH]1 [Example 3-8-1, 4-Morpholino-6-(7-((pyridin-3-ylmethyl)amino)-9H-thioxanthen-4-yl)pyridin-2(1H)-one] | 100 to 500
O=c1cc(N2CCOCC2)cc(-c2cccc3c2Sc2ccc(NC4CCN(C5CCCCC5)C4)cc2S3)[nH]1 (stereo not drawn) [Example 1-24-9, 6-(7-((1-Cyclohexylpyrrolidin-3-yl)amino)thianthren-1-yl)-4-morpholinopyridin-2(1H)-one] | 100 to 500
COc1cncc(C(C)Nc2ccc3c(c2)Cc2cccc(-c4cc(N5CCOCC5)cc(=O)[nH]4)c2O3)c1 (racemic) [Example 2-11-2, 6-(7-((1-(5-Methoxypyridin-3-yl)ethyl)amino)-9H-xanthen-4-yl)-4-morpholinopyridin-2(1H)-one] | 100 to 500
O=c1cc(N2CCOCC2)cc(-c2cccc3c2Sc2ccc(NC4CCCCC4Cl)cc2S3)[nH]1 (stereo not drawn) [Example 1-12-72, 6-(7-((2-Chlorocyclohexyl)amino)thianthren-1-yl)-4-morpholino pyridin-2(1H)-one] | 500 to 2000
CN1CCN(c2cccc(CNc3ccc4c(c3)Sc3cccc(-c5cc(N6CCOCC6)cc(=O)[nH]5)c3S4)n2)CC1 [Example 1-12-33, 6-(7-(((6-(4-Methylpiperazin-1-yl)pyridin-2-yl)methyl)amino)thianthren-1-yl)-4-morpholino pyridin-2 (1H)-one] | 100 to 500
Cc1ccc(C(Nc2ccc3c(c2)Sc2cccc(-c4cc(N5CCOCC5)cc(=O)[nH]4)c2S3)C2CCC2)nc1 (stereo not drawn) [Example 1-12-124, 6-(7-((Cyclobutyl(5-methylpyridin-2-yl)methyl)amino)thianthren-1-yl)-4-morpholino pyridin-2(1H)-one] | 100 to 500
Cc1ccnc(C(CN2CCOCC2)Nc2ccc3c(c2)Sc2cccc(-c4cc(N5CCOCC5)cc(=O)[nH]4)c2S3)n1 (stereo not drawn) [Example 1-13-18, 6-(7-((1-(4-Methylpyrimidin-2-yl)-2-morpholinoethyl)amino)thianthren-1-yl)-4-morpholinopyridin-2(1H)-one] | 500 to 2000
CN1CCN(CCNc2ccc3c(c2)Cc2cccc(-c4cc(N5CCOCC5)cc(=O)[nH]4)c2S3)CC1 [Example 3-4-3, 6-(7-((2-(4-Methylpiperazin-1-yl)ethyl)amino)-9H-thioxanthen-4-yl)-4-morpholino pyridin-2 (1H)-one] | 500 to 2000
O=c1cc(N2CCOCC2)cc(-c2cccc3c2Oc2ccc(NC4CCCN(CCc5ccccc5)C4)cc2C3)[nH]1 (stereo not drawn) [Example 2-19-3, 4-Morpholino-6-(7-((1-phenethylpiperidin-3-yl)amino)-9H-xanthen-4-yl)pyridin-2(1H)-one] | 500 to 2000
COCCNCc1cccc(C(C)Nc2ccc3c(c2)Sc2cccc(-c4cc(N5CCOCC5)cc(=O)[nH]4)c2S3)n1 (stereo not drawn) [Example 1-20-9, 6-(7-((1-(6-(((2-Methoxyethyl)amino)methyl)pyridin-2-yl)ethyl)amino)thianthren-1-yl)-4-morpholino pyridin-2 (1H)-one] | 100 to 500
O=c1cc(N2CCOCC2)cc(-c2cccc3c2Sc2ccc(NCCN4CCOCC4)cc2C3)[nH]1 [Example 3-4-1, 4-Morpholino-6-(7-((2-morpholinoethyl)amino)-9H-thioxanthen-4-yl)pyridin-2(1H)-one] | 500 to 2000
CC(CN1CCOCC1C)Nc1ccc2c(c1)Sc1cccc(-c3cc(N4CCOCC4)cc(=O)[nH]3)c1S2 (stereo not drawn) [Example 1-13-10, 6-(7-((1-(3-Methylmorpholino)propan-2-yl)amino)thianthren-1-yl)-4-morpholino pyridin-2(1H)-one] | 100 to 500
O=c1cc(N2CCOCC2)cc(-c2cccc3c2Sc2ccc(NC4CCN(Cc5ccncc5)CC4)cc2S3)[nH]1 [Example 1-24-20, 4-Morpholino-6-(7-((1-(pyridin-4-ylmethyl)piperidin-4-yl)amino)thianthren-1-yl)pyridin-2 (1H)-one] | 100 to 500
O=c1cc(N2CCOCC2)cc(-c2cccc3c2Sc2ccc(NCCN4CCC(F)(F)C4)cc2S3)[nH]1 [Example 1-10-2, 6-(7-((2-(3,3-Difluoropyrrolidin-1-yl)ethyl)amino)thianthren-1-yl)-4-morpholinopyridin-2(1H)-one] | 100 to 500
O=c1cc(N2CCOCC2)cc(-c2cc(F)cc3c2Oc2ccc(NCc4cncc(Cl)c4)cc2C3)[nH]1 [Example 2-48-3, 6-(7-(((5-Chloropyridin-3-yl)methyl)amino)-2-fluoro-9H-xanthen-4-yl)-4-morpholinopyridin-2(1H)-one] | 100 to 500
O=c1cc(N2CCOCC2)cc(-c2cccc3c2Oc2ccc(NC4CCN(Cc5ccco5)CC4)cc2C3)[nH]1 [Example 2-28-27, 6-(7-((1-(Furan-2-ylmethyl)piperidin-4-yl)amino)-9H-xanthen-4-yl)-4-morpholino pyridin-2(1H)-one] | 100 to 500
CN(C)c1ccc(CN2CCC(Nc3ccc4c(c3)Cc3cccc(-c5cc(N6CCOCC6)cc(=O)[nH]5)c3O4)CC2)cn1 [Example 2-28-9, 6-(7-((1-((6-(Dimethylamino)pyridin-3-yl)methyl)piperidin-4-yl)amino)-9H-xanthen-4-yl)-4-morpholino pyridin-2(1H)-one] | 100 to 500
O=c1cc(N2CCOCC2)cc(-c2cccc3c2Oc2ccc(NC4CCN(Cc5ccccc5)CC4)cc2C3)[nH]1 [Example 2-28-24, 6-(7-((1-Benzylpiperidin-4-yl)amino)-9H-xanthen-4-yl)-4-morpholino pyridin-2 (1H)-one] | 100 to 500
